Assay results taken from patent US5344922A, “4-hydroxyquinaldic acid derivatives” (priority 1992, dated 1994).
Values joined by “and” are separate entries in the source; they are usually repeats but may differ in a detail not shown here. Equal entries are not always repeated. Where two headings read alike, the source gives them in different places.

How the values were obtained:
[1] = biological target: T1, NMDA receptor/channel complex (Rattus norvegicus, UniProt P35439); assay: biochemical; type: biochemical
T1 construct: buffy coat rat cortical membrane preparation; from tissue; host or cells: rat cerebral cortex, buffy coat membranes
Procedure: (§1) The tissue was homogenized in a glass grinding vessel with a teflon pestle in ice-cold 0.32 M sucrose and centrifuged for 10 min at 1000×g. The resultant supernatant was decanted and recentrifuged at 20,000×g for 20 min. The pellet was resuspended in 20 volumes of ice-cold dH20 and centrifuged for 20 min at 8000×g. The supernatant and the buffy coat were then re-collected and recentrifuged at 48,000×g for 20 min. The pellet was resuspended in 20 volumes of ice-cold water and centrifuged for 20 min at 48,000×g, after which it was stored at -20° C. for not more than two weeks. On the day of the assay, the pellet was thawed, resuspended in 40 volumes of buffer, incubated at 37° C. for 20 min in the appropriate buffer, and centrifuged for 10 min at 48,000×g. The pellet was then resuspended in 40 volumes of buffer and recentrifuged at 48,000×g for 10 min. This step was repeated twice before the pellet finally resuspended in a buffer suitable for the particular binding assay. Protein concentrations were determined by the method described by Smith (1985).
D. ^3 H-TCP Binding Assay
The dissociative anesthetics ketamine and phencyclidine (PCP) selectively antagonize depolarizations produced by NMDA.
^3 H-TCP binding assays were initiated by addition of 100 μl aliquots of membrane homogenate (approximately 150 μg protein) to test tubes containing 5 nM ^3 H-TCP in the presence or absence of the test drug(s) dissolved in 10 mM HEPES buffer pH 7.5. The final volume in each tube was 1 ml, and tubes were incubated for 2 hr at 23° C. Non-specific binding was defined as that remaining in the presence of 30 μM PCP. The filtration procedure was used as described above except that the filters were presoaked for one hour in 0.03% polyethyleneimine (PEI) (Sigma) to reduce filter binding. Scintillation counting was performed as described above.
(§2) Previously washed rat cortical membranes were resuspended at approximately 0.1 mg protein/ml in the appropriate buffer (pH 7.4 at 23° C.), and 30 ml were placed in each of 3 or 4 150×25 mm polystyrene culture dishes on a rotating shaker. A 200 μL aliquot of a 10 mM solution of 7-chloro-4-hydroxy-2-quinoline carbonyl azide dissolved in DMSO was added and the solution was mixed for 10 min in the dark. Photolysis was accomplished by exposure of the reaction mixture to 366 nm long-wave ultraviolet light (Transilluminator, Fotodyne, Model 3-3000) at a distance of 5 cm for 10 min with continuous mixing.
(§3) The Hill slopes (nH) and maximal displacement of radioligand binding were estimated by non-linear curve-fitting to a sigmoidal algorithm using the EBDA portion of the LIGAND data analysis software package for the IBM-PC (Elsevier). K1 values were obtained from the LIGAND analysis of the same data. KD and Bmax estimates were obtained by non-linear curve-fitting of the saturation isotherm using programs from the same software package (Munson and Rodbard, 1980). All data analysis was performed on each of 3-7 individual experiments performed in triplicate (7 concentrations) or duplicate (10 concentrations). Reported values are the mean ±S.E.M. of these analyses. For displacement experiments, these values were plotted with the sigmoid curve taken as the average of the sigmoidal fits of each individual experiment.

Solubility = type: physicochemical
Procedure: (§4) Thus, in all experiments, 7-chloro-4-hydroxy-2-quinoline carbonyl azide was first dissolved at high concentrations (1-10 mM) in dimethylsulfoxide (DMSO) and then diluted in the appropriate physiological buffer. […] The appropriate DMSO control was performed at the same time, and no changes in the binding of radioligands were ever observed. This procedure, and all subsequent procedures where non-photolyzed material was desired, were performed under red light.

NMDA receptor = assay: Photolabeling of cortical membranes followed by SDS polyacrylamide gel electrophoresis; type: binding, rat; details: cortical membranes photolabeled, 366 nm; bands Rf 0.71 and 0.53
Procedure: E. Photolabeling with 7-chloro-4-hydroxy-2-quinoline carbonyl azide
as §4
as §2, with “Photolysis was accomplished by exposure of the reaction mixture to 366 nm long-wave ultraviolet light (Transilluminator, Fotodyne, Model 3-3000) at a distance of 5 cm for 10 min with continuous mixing.” left out
Cortical membranes were photolabeled with 7-chloro-4-hydroxy-2-quinoline as described in Example II, section E. Protein concentration of this preparation was determined using the BCA protein assay kit (Pierce, Rockford, Ill.). […]
Gels were removed and fluorescent bands visualized and recorded using a transilluminator (Fotodyne, New Berlin, Wis.) fitted with four 366nm UV bulbs (15 watts). […]

NMDA recognition site = assay: NMDA-specific 3H-L-glutamate binding assay in cortical membranes; design: species or system rat
Procedure: as §1, with “^3 H-Glycine (^3 H-GLY), ^3 H-TCP and NMDA specific ^3 H-GLU binding assays were performed in a buffy coat rat cortical membrane preparation (Jones et al., 1989). The tissue” for “The tissue”, “at 48,000×g. […] Protein concentrations” for “at 48,000×g. The pellet was then resuspended in 40 volumes of buffer and recentrifuged at 48,000×g for 10 min. This step was repeated twice before the pellet finally resuspended in a buffer suitable for the particular binding assay. Protein concentrations”, “Smith (1985). […]” for “Smith (1985).”
For equilibrium saturation experiments, different concentrations of ^3 H-glutamate (diluted with unlabeled L-glutamate) ranging from 10 to 320 nM in the presence or absence of test drug(s) were examined. Non-specific binding was defined as that remaining in the presence of 300 μM NMDA and was determined at the lowest and the highest concentration of ^3 H-L-glutamate. […]

[2] = biological target: T2, strychnine-insensitive glycine site associated with the NMDA receptor/channel complex (Rattus norvegicus, UniProt P35439); assay: 3H-glycine binding assay in cortical membranes; details: for Hill slope (nH), displacement of 3H-glycine binding: mean ± S.E.M.
T2 construct: buffy coat rat cortical membrane preparation; from tissue; host or cells: rat cerebral cortex, buffy coat membranes
Procedure: as §1, with “^3 H-Glycine (^3 H-GLY), ^3 H-TCP and NMDA specific ^3 H-GLU binding assays were performed in a buffy coat rat cortical membrane preparation (Jones et al., 1989). The tissue” for “The tissue”
C. ^3 H-Glycine Binding Assay
^3 H-glycine binding assays were initiated by addition of 100 μl aliquots of membrane homogenate (100-150 μg protein) to test tubes containing 20 nM ^3 H-glycine in the presence or absence of the test drug(s) dissolved in 50 mM Tris acetate or 50 mM Na-free HEPES buffer pH 7.5 for a final volume of 1 ml, followed by incubation for 30 min at 4° C. […] The filtration procedure and scintillation counting were performed as described above.
as §3

glycine modulatory site = details: Kemp et al., 1988; cited from earlier work
[3] = system: NMDA-mediated neuronal response; details: glycine-reversible; Fletcher and Lodge, 1988; cited from earlier work
[4] = biological target: T2, strychnine-insensitive glycine site associated with the NMDA receptor/channel complex; details: read-out: K1 at the glycine site (reported); Fletcher and Lodge, 1988; cited from earlier work
[5] = tissue treated with 7-chloro-4-hydroxyquinaldic acid and exposed to UV light

SMILES: [N-]=[N+]=NC(=O)c1cc(O)c2ccc(Cl)cc2n1 [7-chloro-4-hydroxy-2-quinoline carbonyl azide]
- mode of inhibition of glycine action on 3H-TCP binding, non-photolyzed ([1]; non-photolyzed azide): competitive antagonism of the actions of glycine
- inhibition at 10 µM ([1]; read-out: decrease of 3H-TCP binding in the absence of added glycine): 70%
- mode of inhibition of glycine-enhanced 3H-TCP binding, UV irradiated ([1]; tissue UV irradiated in the presence of azide): distinctly non-competitive inhibition of glycine-enhanced ^3 H-TCP binding
- solubility in polar solutions (Solubility): limited solubility
- fluorescent bands on SDS polyacrylamide gel after photolabeling (NMDA receptor): two distinct fluorescent bands
- Ki (NMDA recognition site; n=5, mean ± S.E.M., read-out: K1 for the NMDA site): 101 ± 12 µM
- displacement of NMDA-specific 3H-L-glutamate binding (NMDA recognition site; rat cortical membranes, FIG. 2B): less than 10%
- Ki [2]: 2.4 ± 0.2 µM
- decrease in the apparent affinity for the 3H-glycine binding site on introduction of an azido group ([2]; azide relative to 7-chloro-4-hydroxyquinaldic acid): 5 fold
- mode of displacement of 3H-glycine binding ([2]; rat cortical membranes, red light): apparently competitive
- Hill slope (nH), displacement of 3H-glycine binding ([2]; rat cortical membranes): 0.90±0.08
- selectivity for the 3H-glycine binding site ([2]; relative to the NMDA recognition site labeled by 3H-L-glutamate): selective affinity for the ^3 H-glycine binding site relative to the NMDA recognition site

SMILES: O=C(O)c1cc(O)c2ccc(Cl)cc2n1 [7-chloro-4-hydroxyquinaldic acid]
- reduction of 3H-TCP binding in the absence of added glycine [1, 5]: 100%
- rightward parallel shift of the glycine concentration-response curve [1, 5]: 4 fold
- activity at the glycine modulatory site (glycine modulatory site): selective antagonist of the glycine modulatory site
- Ki [2]: 0.49 ± 0.05 µM
- Hill slope (nH), displacement of 3H-glycine binding ([2]; rat cortical membranes): 0.74±0.03

SMILES: NC1CCN(O)C1=O (stereo not drawn) [HA-966, 1-hydroxy-3-aminopyrrolidone-2]
- effect on NMDA-mediated neuronal response [3]: reduce NMDA-mediated neuronal response in a glycine-reversible manner
- Ki [4]: ~5 µM

SMILES: NCC(=O)O [glycine]
- slope of glycine concentration-response, 3H-TCP binding [1]: 1.02 and 0.93 and 1.15
- Emax ([1]; read-out: maximal increase of 3H-TCP binding by glycine): 150%
